Source: patent publication EP4005557A1, “METHOD FOR PREPARING NANOSYSTEMS” (Université de Genève, priority 2020, dated 2022)

Key:
[1] = Contact angle measurement on a solid surface by sessile drop technique (wetting properties); format: physicochemical; details: Table 3, voriconazole series
Method: The contact angles of voriconazole alone, glucose, voriconazole micelle formulation and voriconazole liposome formulation on a solid surface were measured by sessile drop technique using Lorentzen and […], type 28 optical tensiometer. The purpose of measuring the contact angle is to determine the wetting properties of the formulation. Higher contact angles correspond to poor wetting whereas lower contact angle correspond to good wetting properties. Micelles and liposomes of itraconazole have been prepared according to the method described in example 1. The contact angles of itraconazole alone, glucose, itraconazole micelle formulation and itraconazole liposome formulation on a solid surface were measured by sessile drop technique using Lorentzen and […], type 28 optical tensiometer.

[2] = drug alone; no method described; cited from earlier work

## C[C@@H](c1ncncc1F)[C@](O)(Cn1cncn1)c1ccc(F)cc1F [Voriconazole]
[1]
  Contact angle: 68.2°
[2]
  Log P: 1.75
